Data on two molecules can be found in ChEMBL document CHEMBL5360657, “Discovery of the TLR7/8 Antagonist MHV370 for Treatment of Systemic Autoimmune Diseases” (ACS Med Chem Lett, 2023).

pIC50: −log10 of the molar value. Bounds are passed on as bounds.

The target of data set [1] is Toll-like receptor 4 (Homo sapiens, UniProt O00206). Kind of data set: Antagonist activity at TLR4 in human PBMC cells assessed as reduction in IL-6 level measured after 20 hrs by AlphaLISA assay. The format is cell-based. On the technique in general: In Alpha technology, singlet oxygen from a donor bead excites a nearby acceptor bead.
The target in another data set is T1, Toll-like receptor 9 (Mus musculus, UniProt Q9EQU3).
T1 sequence (Q9EQU3 whole entry): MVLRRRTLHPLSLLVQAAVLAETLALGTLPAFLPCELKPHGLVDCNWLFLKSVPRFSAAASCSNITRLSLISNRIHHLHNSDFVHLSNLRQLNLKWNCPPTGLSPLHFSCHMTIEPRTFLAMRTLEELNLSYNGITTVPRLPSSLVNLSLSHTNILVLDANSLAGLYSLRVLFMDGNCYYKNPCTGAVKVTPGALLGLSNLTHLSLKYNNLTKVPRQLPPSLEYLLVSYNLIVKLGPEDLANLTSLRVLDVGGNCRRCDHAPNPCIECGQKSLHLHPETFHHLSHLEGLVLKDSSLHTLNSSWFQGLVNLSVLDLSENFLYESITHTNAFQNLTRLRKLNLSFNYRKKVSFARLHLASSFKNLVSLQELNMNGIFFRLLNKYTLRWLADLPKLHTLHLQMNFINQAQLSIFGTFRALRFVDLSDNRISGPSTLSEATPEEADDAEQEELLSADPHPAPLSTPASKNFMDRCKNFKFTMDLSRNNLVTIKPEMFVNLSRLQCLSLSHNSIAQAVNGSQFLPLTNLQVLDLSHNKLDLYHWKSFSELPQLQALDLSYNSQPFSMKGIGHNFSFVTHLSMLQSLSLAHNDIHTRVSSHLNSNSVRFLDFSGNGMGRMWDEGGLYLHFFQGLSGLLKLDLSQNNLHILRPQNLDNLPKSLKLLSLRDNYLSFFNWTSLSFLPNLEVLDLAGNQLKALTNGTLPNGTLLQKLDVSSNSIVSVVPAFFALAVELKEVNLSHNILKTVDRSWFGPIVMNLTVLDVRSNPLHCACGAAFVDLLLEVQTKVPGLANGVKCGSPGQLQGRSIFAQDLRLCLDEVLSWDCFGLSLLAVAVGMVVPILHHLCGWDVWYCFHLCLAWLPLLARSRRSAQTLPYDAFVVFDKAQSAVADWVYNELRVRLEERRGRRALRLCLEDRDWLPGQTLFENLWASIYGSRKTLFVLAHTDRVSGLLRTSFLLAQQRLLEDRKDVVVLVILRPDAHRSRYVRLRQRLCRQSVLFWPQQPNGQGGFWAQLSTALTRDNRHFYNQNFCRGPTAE
Kind of data set: Antagonist activity at TLR9 in mouse Splenocyte assessed as reduction in IFN-alpha level measured after 20 hrs by Spectramax M5 method. The format is cell-based.

The target in data set [2] is T2, Toll-like receptor 4 (Mus musculus, UniProt Q9QUK6).
T2 sequence (Q9QUK6 whole entry): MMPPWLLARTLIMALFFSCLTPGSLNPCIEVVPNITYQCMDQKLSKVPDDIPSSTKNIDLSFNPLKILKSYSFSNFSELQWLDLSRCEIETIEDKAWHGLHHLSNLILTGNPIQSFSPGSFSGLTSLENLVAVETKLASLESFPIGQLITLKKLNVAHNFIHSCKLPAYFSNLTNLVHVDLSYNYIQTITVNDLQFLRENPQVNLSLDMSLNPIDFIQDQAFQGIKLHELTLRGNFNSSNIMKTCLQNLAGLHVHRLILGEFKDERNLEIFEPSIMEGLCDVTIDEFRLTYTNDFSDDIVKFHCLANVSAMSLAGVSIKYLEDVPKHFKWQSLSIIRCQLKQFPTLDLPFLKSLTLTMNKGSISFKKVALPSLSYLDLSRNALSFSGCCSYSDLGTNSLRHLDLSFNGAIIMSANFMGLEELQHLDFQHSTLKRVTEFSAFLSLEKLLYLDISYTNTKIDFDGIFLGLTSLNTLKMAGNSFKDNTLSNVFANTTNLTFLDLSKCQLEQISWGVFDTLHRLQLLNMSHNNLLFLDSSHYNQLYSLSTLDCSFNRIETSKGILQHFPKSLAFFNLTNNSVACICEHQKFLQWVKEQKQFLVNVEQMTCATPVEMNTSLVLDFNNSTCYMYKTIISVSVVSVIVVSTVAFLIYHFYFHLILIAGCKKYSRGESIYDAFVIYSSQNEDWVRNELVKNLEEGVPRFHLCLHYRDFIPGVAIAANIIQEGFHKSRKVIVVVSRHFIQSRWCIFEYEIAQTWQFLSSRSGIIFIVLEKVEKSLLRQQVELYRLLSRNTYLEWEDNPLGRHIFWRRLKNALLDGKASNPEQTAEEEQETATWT
Kind of data set: Antagonist activity at TLR4 in mouse Splenocyte assessed as reduction IL-6 level measured after 20 hrs by Spectramax M5 method. The format is cell-based.

Data set [3] has as its target T2, Toll-like receptor 4. Kind of data set: Antagonist activity at TLR4 in mouse Whole blood cell assessed as reduction in IL-6 level measured after 20 hrs by HTRF method. The data set is classed as tissue-based. A general note: TR-FRET usually uses a lanthanide donor and a delayed reading to cut background.
The target in data set [4] is Toll-like receptor 7 (Mus musculus) (UniProt P58681). Kind of data set: In vivo antagonist activity against TLR7 in mouse assessed as suppression of IFN alpha level at 1 mg/kg, po measured at 3 hrs by LC-MS/MS analysis.
The target is the same in data set [5]. Kind of data set: In vivo antagonist activity against TLR7 in mouse assessed as inhibition of IL-6 level at 10 mg/kg, po measured after 2 hrs by LC-MS/MS analysis relative to control.
Data set [6] can be described thus: Cmax in mouse at 3 mg/kg, iv. Conditions: in vivo. The format is ADME, organism-based. More on the design: dose 3 mg/kg, route iv.
Data set [7] is described as follows: Inhibition of CYP2D9 (unknown origin). The format is ADME, Homo sapiens.

Toll-like receptor 4 (Homo sapiens, UniProt O00206), sequence (O00206 whole entry): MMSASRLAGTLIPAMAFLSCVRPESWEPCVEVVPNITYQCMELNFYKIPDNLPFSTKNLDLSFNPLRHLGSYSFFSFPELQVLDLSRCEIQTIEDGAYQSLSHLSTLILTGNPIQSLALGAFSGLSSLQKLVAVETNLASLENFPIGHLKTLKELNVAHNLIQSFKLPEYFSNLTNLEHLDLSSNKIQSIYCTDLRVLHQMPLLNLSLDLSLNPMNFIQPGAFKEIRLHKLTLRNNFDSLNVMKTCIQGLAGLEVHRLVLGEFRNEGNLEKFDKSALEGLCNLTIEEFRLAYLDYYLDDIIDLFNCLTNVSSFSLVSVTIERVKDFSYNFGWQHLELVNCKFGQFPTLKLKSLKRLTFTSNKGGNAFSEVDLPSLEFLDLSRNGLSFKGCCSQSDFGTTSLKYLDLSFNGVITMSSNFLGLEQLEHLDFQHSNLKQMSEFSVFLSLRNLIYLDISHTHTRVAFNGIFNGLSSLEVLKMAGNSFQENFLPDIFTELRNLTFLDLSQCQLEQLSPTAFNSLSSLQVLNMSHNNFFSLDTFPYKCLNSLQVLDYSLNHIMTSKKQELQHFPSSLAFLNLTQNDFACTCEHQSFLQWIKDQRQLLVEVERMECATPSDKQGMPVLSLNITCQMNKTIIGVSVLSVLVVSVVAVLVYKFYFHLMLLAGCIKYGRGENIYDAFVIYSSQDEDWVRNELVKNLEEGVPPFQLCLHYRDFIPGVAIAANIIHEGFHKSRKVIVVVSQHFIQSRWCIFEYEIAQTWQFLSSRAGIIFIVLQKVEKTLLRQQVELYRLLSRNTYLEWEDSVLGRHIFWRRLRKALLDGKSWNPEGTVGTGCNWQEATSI

Usually pIC50 stands for the IC50 on a negative log10 scale, so that one unit is a factor of ten. The term inhibition in vivo denotes the change of the read-out against control, counted positive when it falls. `Cc1cc(N2CCc3c(c(C)nn3CC34CCC(NC(=O)[C@@H]5COCCN5)(CC3)CC4)C2)c2cnn(C)c2n1` [MHV-370]: the pIC50 on Toll-like receptor 4 [1] was < 5.00; at Toll-like receptor 9 it was < 6.00; at Toll-like receptor 4 [2], < 5.00; at Toll-like receptor 4 [3] it was < 5.00. In addition, in data set [4], the Activity stood at 25 ng/mL. Also, the inhibition in vivo at 10 mg/kg in data set [5] is ~100%.
One may read the Cmax as the maximum level reached in the sampled fluid or tissue. In the case of `Cc1cc(N2CCc3c(c(C)nn3CC34CCC(N)(CC3)CC4)C2)c2cnn(C)c2n1`, the peak concentration (Cmax) in data set [6] is 321 nM. Further, the pIC50 in data set [7] is < 4.60.
